This is an account of results in US20190255175A1, “ACTIVATION OF TRPA1+ NOCICEPTORS IN THE VAGUS NERVE ATTENUATES SYSTEMIC INFLAMMATION” (THE FEINSTEIN INSTITUTE FOR MEDICAL RESEARCH, priority 2018, published 2019).

Assay [1] deals with nodose ganglion neurons. Briefly: Whole-cell patch clamp recordings of nodose ganglion neurons. Conditions: nodose neurons held at −65 mV; IL-1β 20 μg/ml. Type of assay: cell-based, mice. As for the experimental part: Whole-cell patch clamp recordings were made with glass pipettes pulled on a P-97 electrode puller (Sutter Instruments, Novato, Calif.). The resistance of the pipettes was 2-4 MΩ when filled with an intracellular solution (in mM: CsCl 140, HEPES 10, EGTA 5, Mg-ATP 2, NaGTP 0.3, MgCl2 2, Phosphocreatine 10, pH 7.25 adjusted with CsOH). Cells were superfused at a rate of 2 ml/min with an external bath solution containing the following (in mM): 150 NaCl, 2.5 KCl, 10 HEPES, 10 D-glucose, 2 CaCl2, and 1 MgCl2, pH 7.3-7.4. Experiments were performed at room temperature (22-24° C.). Currents from neurons were monitored with an Multiclamp 700B amplifier (Molecular Devices, Union City, Calif.), acquired through Digidata 1550B (Molecular Devices) onto a computer using pClamp 11 software (Molecular Devices). Data were analyzed using Clampfit 11 (Molecular Devices). All chemicals used for electrophysiological recordings were purchased from Sigma. All drugs and solutions were made fresh from drug stock solutions.
Using patch clamp recordings, IL-1β responses were recorded in nodose ganglion neurons. Application of IL-1β (20 μg/ml) induced calcium influx as indicated by increase of fluorescence in 6 out of 332 (1.8%) sensory nodose ganglion neurons from VGlut2-GCaMP3 mice. Next, whole-cell patch clamp recordings were carried out on the same neurons that responded to IL-1β in calcium influx analysis. When the membrane potential was held at −65 mV, bath application of IL-1β (20 μg/ml) produced slow inward currents in 4 out of 332 (1.2%) nodose neurons. The amplitude of IL-1β induced currents are 108±23 pA (n=4). […] In current-clamp mode, IL-1β reduced action potential threshold from −25±2 mV to −31±3 mV (n=4). […] To further determine the potential interaction of TRPA1 with IL-1β, nodose ganglion neurons from TRPA1 KO mice were examined in a culture system. […] IL1R1 co-localizes with TRPA1 on nodose ganglion neurons, as was determined using immunohistochemical staining.
In general terms: The patch-clamp technique gives a direct electrical read-out from membranes.

Assay [2] concerns TRPA1+ fibers of the vagus nerve. Briefly: Optovin applied to the vagus nerve with 405 nm optical stimulation, followed by LPS endotoxemia; serum TNF. Type of assay: in vivo, mice. To be noted: TRPA1 KO mice; optovin + 405 nm light vs no light; LPS 8 mg/kg. As for the experimental part:
(§1) FIG. 1A-1C. Stimulation of sensory TRPA1+ vagus fibers attenuates serum TNF levels in endotoxemic mice. A) Wild type mice were treated with optovin directly to the vagus nerve, followed by exposure to no light (n=9) or 405 nm light (n=10). Mice were also subjected to a proximal vagotomy (n=12) cutting off afferent signaling to the brain. These mice were also treated with optovin and stimulated with 405 nm light. B) TRPA1 KO mice were treated with optovin directly to the vagus nerve. The mice were then treated with no light (n=9) or 405 nm light (n=8). C) α7 KO mice were treated with optovin directly to the vagus nerve. The mice were then treated with no light (n=10) or 405 nm light (n=12). Two asterisks indicate p<0.01.
(§2) Optical stimulation was generated by Thor Labs LED driver DC4100, with a 405 nm LED model M405L3 (Newton, N.J.). Sham mice underwent surgical control up to the point of identifying the cervical vagus nerve, without isolating it from the bundle. In both conditions 2 μl of optovin was applied directly on the nerve for 2 minutes prior to stimulation. Sham animals received no light applied to the nerve. The stimulated group received 405 nm light 1000 mA, 10 hz, with a 10% duty cycle for 5 minutes with an approximate power of 80-85 μW. Animals then recovered for 2 hours and were administered LPS (8 mg/kg) via intraperitoneal (ip) injection. Mice were euthanized 1.5 hours after LPS administration, with serum collected.
(§3) All vagotomized animas had their vagus nerve isolated. Prior to the vagotomy a 6.0 suture was tied around the vagus nerve. The nerve was then cut proximally or above (blocking left vagus nerve signaling to the brain while signaling to the periphery remained intact) to where 2 μl of optovin was to be added. All mice were stimulated using the same parameters as previously indicated. Animals then recovered for 2 hours and were administered LPS (8 mg/kg) via intraperitoneal (ip) injection. Mice were euthanized 1.5 hours after LPS administration, with serum collected.
(§4) Vagus nerve stimulation has been used as a treatment for peripheral inflammation in both rodents and humans^18-21. TRPA1 is an ion channel that has been indicated in neural sensing of inflammation within the skin and lungs 22-24. To determine TRPA1's role in the inflammatory reflex, photochemical stimulation of TRPA1+ fibers of the vagus nerve was carried out using a molecule called optovin. Optovin selectively binds to TRPA1 making it photoactive to 405 nm light^25. To directly stimulate the TRPA1+ vagus nerve fibers, optovin was applied directly to nerve, with one group unstimulated and one group stimulated with the 405 nm light for 5 minutes with LPS (8 mg/kg) administer 2 hours later. […]

The target in assay [3] is T1, TRPA1+ fibers of the vagus nerve (Mus musculus, UniProt Q8BLA8).
T1 construct: optovin was applied directly to nerve; from tissue; also TRPA1 KO and α7 nAChR KO groups
T1 sequence (Q8BLA8 whole entry): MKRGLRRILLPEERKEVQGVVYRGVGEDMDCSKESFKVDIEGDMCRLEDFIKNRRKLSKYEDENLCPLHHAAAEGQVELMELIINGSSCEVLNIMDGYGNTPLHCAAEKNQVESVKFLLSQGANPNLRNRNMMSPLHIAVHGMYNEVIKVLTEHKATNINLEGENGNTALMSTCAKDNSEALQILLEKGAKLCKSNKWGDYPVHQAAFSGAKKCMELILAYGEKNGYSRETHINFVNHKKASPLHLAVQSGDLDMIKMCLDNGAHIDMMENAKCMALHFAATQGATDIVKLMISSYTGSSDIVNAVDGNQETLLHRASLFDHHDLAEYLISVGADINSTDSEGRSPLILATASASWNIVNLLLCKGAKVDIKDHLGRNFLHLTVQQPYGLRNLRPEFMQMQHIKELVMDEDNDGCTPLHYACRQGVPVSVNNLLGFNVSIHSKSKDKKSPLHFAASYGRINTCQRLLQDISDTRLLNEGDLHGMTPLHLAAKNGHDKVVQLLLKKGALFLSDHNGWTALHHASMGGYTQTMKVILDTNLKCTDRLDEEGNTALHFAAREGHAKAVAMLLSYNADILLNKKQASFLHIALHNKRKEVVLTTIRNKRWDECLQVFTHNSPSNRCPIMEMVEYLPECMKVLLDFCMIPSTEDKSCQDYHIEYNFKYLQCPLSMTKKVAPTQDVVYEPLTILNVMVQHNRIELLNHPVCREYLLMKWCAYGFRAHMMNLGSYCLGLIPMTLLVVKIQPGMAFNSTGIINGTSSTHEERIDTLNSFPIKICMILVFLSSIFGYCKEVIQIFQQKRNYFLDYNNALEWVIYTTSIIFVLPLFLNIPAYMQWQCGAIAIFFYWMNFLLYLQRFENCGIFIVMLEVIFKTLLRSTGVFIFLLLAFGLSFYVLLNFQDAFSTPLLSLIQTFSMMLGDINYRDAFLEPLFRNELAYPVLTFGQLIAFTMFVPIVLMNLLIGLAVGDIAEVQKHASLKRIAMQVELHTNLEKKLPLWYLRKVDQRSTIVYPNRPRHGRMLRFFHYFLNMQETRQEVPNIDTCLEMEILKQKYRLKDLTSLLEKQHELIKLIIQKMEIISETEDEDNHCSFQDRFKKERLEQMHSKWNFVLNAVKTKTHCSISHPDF
The assay is described as above. Type of assay: in vivo, mice. As for the experimental part:
as §1, §2, §3, §4

For assay [4], the target named is T2, TRPA1+ neurons (Mus musculus, UniProt Q8BLA8).
T2 construct: from tissue; host or cells: living mice (wild type and TRPA1 KO), systemic i.p. dosing; TRPA1+ neurons
T2 sequence (Q8BLA8 whole entry): as above
Briefly: Pharmacological stimulation of TRPA1+ neurons with polygodial in endotoxemic mice; TNF by ELISA. Conditions: wildtype mice; polygodial 5 mg/kg ip 30 min before endotoxin 0.1 mg/kg ip; collected after 90 min. In kind it is in vivo. As for the experimental part: (§5) FIG. 2A-2D. […] A) Serum: wildtype mice received intraperitoneal administration of polygodial (5 mg/kg) (n=6) or vehicle (n=5). After 30 minutes, mice were subjected to endotoxemia (0.1 mg/kg endotoxin, i.p.). Blood was collected after 90 min and serum TNF levels were determined by ELISA. *p<0.05. B) Spleen: wildtype mice received intraperitoneal administration of polygodial (5 mg/kg) (n=7) or vehicle (n=6). After 30 minutes, mice were subjected to endotoxemia (0.1 mg/kg endotoxin, i.p.). Spleens were collected after 90 min and serum TNF levels were determined by ELISA. *p<0.05. C, D) Pharmacological Stimulation of TRPA1+ neurons fail to attenuate TNF levels in endotoxemic TRPA1 KO mice. C) Serum: TRPA1 KO mice received intraperitoneal administration of polygodial (5 mg/kg) (n=9) or vehicle (n=8). After 30 minutes, mice were subjected to endotoxemia (0.1 mg/kg endotoxin, i.p.). Blood was collected after 90 min and serum TNF levels were determined by ELISA. D) Spleen: TRPA1 KO mice received intraperitoneal administration of polygodial (5 mg/kg) (n=9) or vehicle (n=8). After 30 minutes, mice were subjected to endotoxemia (0.1 mg/kg endotoxin, i.p.). Spleens were collected after 90 min and serum TNF levels were determined by ELISA.
(In an ELISA, binding on a coated surface is turned into a signal by an enzyme label.)

The test system of assay [5] is TRPA1+ neurons. The assay is described as above. In kind it is in vivo. To be noted: TRPA1 KO mice; polygodial 5 mg/kg ip 30 min before endotoxin 0.1 mg/kg ip; collected after 90 min. As for the experimental part: as §5

Take `Cn1cnc2ncn(Cc3nc(CCc4ccc(Cl)cc4)no3)c(=O)c21` [AM0902, reference compound]: in assay [1], the “Block of inward currents after IL-1β application” value is reported as “completely blocked”.
For the compound `Cc1cc(/C=C2/SC(=S)NC2=O)c(C)n1-c1cccnc1` [optovin], the “TNF levels in response to LPS” value in assay [2] was “no significant reductions in TNF levels”; in assay [3] (proximally vagotomized mice, optovin + 405 nm light, LPS 8 mg/kg), “no significant reduction in TNF levels”; in assay [3] (wild type mice, optovin on vagus nerve, 405 nm light 5 min vs no light, LPS 8 mg/kg ip 2 h later, serum 1.5 h after LPS), “significantly reduced TNF levels”. In addition, the “serum TNF levels” value in assay [3] (α7 nAChR KO mice, optovin + 405 nm light vs no light, LPS 8 mg/kg) is recorded as “did not significantly reduce serum TNF levels”.
For the compound `CC1(C)CCC[C@]2(C)[C@@H](C=O)C(C=O)=CC[C@@H]12` [polygodial], in assay [4], the “TNF levels in serum” value is on record as “attenuates TNF levels” and the “TNF levels in spleen” value is “attenuates TNF levels”. In assay [5], the “TNF levels in serum” value was “no significant reduction” and the “TNF levels in spleen” value was “no significant reduction”.
